Assay results: patent US20150296786A1, “SYNERGISTIC COMBINATION OF A ZOXAMIDE COMPOUND AND ONE OF DCOIT OR OIT FOR DRY FILM PROTECTION” (ROHM AND HAAS COMPANY, priority 2012, published 2015)

Columns and labels:
[1] = system: Chlorella sp. ATCC 7516; test: Algal efficacy testing of dry paint films (modified ASTM 5589, 6-well plates); format: cell-based; conditions: 504 h, 3 weeks, visible algal growth vs blank, pass level ≧75%; for inhibition at 1000 ppm: total conc 1000 ppm in paint
Experimental: (§1) Sample preparation for antimicrobial testing was performed as follows:
(§2) Slurries containing 33% antimicrobial active ingredient (Zoxamide) were post added to a white, acrylic/silicone based outdoor paint free of biocides to give a total active ingredient concentration of 10000 and 1000 ppm respectively. KATHON™ 893T (100% OIT) and ROCIMA™ 200 (20% DCOIT) were post added to a white, acrylic/silicone based outdoor paint free of biocides to give a total active ingredient concentration of 10000 and 1000 ppm respectively. These paints were then diluted with an antimicrobial free acrylic/silicone based paint and mixed to prepare targeted concentrations of antimicrobial compounds for the testing. The total biocides concentrations tested were 125, 250, 500, 1000, 2000 and 5000 ppm. After biocides addition or dilution, the paints were mixed 90 seconds with the horse power shaker (AXEL 75M3372/Agitateur SO-10MI) until uniformity was achieved. Paints containing different antimicrobial compounds at the same levels were mixed together in order to obtain the desired ratio of antimicrobial compounds. After one day, the paints were applied to Schleicher & Schuell filter paper at 280μm wet film thickness and dried for 3 days at room temperature avoiding direct exposure to sunlight. Square discs (1.6 cm×1.6 cm) were cut out from each panel and were used as the substrate for algal efficacy tests. This sample size allowed for an agar border when the sample disc was placed into the well of the test plate.
(§3) Algal efficacy was tested according to modified ASTM 5589 which is a standard accelerated test method for determining resistance of various coatings (including paints) to algal defacement. To accommodate for high-throughput screening, this method was scaled down from petri dishes to 6-well plates. Bold Modified Basal Freshwater Nutrient Solution was used as growth medium. A single coated filter paper coupon was placed with a pair of sterile forceps at the center of the agar plug (on top) with the painted surface facing upwards. Algal inoculums were prepared by mixing equal concentrations (1×10^6 cfu/ml) and equal volumes of exponentially growing algae cultures.
(§4) Each well that contains a tested coupon was inoculated with 1750 μl of algal suspensions (1×10^6 cfu/ml) making sure that the whole surface (paint film as well as the agar surrounding it) was evenly covered. The plates were incubated at room temp (21° C.-25° C.) with cyclic exposure to light and dark phases, for a period of three weeks.
(§5) At the end of the three week incubation period, the samples were scored for percent inhibition regarding visible algal growth compared to the blank sample (0% inhibition).
(§6) The Synergy Index calculation was performed as follows.
(§7) The SI is calculated based on F. C. Kull et.
(§8) SI value of <1 in the formula indicates a synergism of the blended biocides exists.
(§9) The minimal targeted inhibition was set at 75%, meaning a coupon with at least 75% algal growth inhibition was considered as a pass.

[2] = system: Stichococcus bacillaris SAG 379-1a / CCAP 379/1a; test: as above; format: cell-based; conditions: 504 h, 3 weeks, visible algal growth vs blank, pass level ≧75%
Experimental: as §1, §2, §3, §4, §5, §6, §7, §8, §9

Row | Compound | inhibition at 1000 ppm [1] [%] | inhibition at 1000 ppm ([2]; total conc 1000 ppm in paint) [%] | inhibition at 5000 ppm ([1]; total conc 5000 ppm in paint) [%] | inhibition at 5000 ppm ([2]; total conc 5000 ppm in paint) [%]
1 | CCCCCCCCn1sc(Cl)c(Cl)c1=O [DCOIT, 4,5-dichloro-2-n-octyl-4-isothiazolin-3-one] | 85 | 85 |  | 
2 | CCCCCCCCn1sccc1=O [OIT, 2-n-octyl-4-isothiazolin-3-one] | 95 |  |  | 
3 | CCC(C)(NC(=O)c1cc(Cl)c(C)c(Cl)c1)C(=O)CCl (centres unmarked) [Zoxamide] |  |  | 60 | 45
